Test results reported in ChEMBL document CHEMBL4145553, “Design, synthesis, and biological evaluation of novel amide and hydrazide based thioether analogs targeting Histone deacteylase (HDAC) enzymes” (Eur J Med Chem, 2018).

Assays:
Type in all cases: functional
SNB-19 = assay: Growth inhibition of human SNB19 cells assessed as cell growth at 10^-5 M incubated for 48 hrs by sulforhodamine B assay relative to control; conditions: SNB-19, 48 h, read-out: Activity
OVCAR-5 = assay: Growth inhibition of human OVCAR5 cells incubated for 48 hrs by sulforhodamine B assay; conditions: OVCAR-5, 48 h
EKVX [1] = assay: Growth inhibition of human EKVX cells assessed as cell growth at 10^-6 M incubated for 48 hrs by sulforhodamine B assay relative to control; conditions: read-out: Activity
T47D [2] = assay: Growth inhibition of human T47D cells assessed as cell growth at 10^-8 M incubated for 48 hrs by sulforhodamine B assay relative to control; conditions: read-out: Activity
MDA-MB-231 [3] = assay: Growth inhibition of human MDA-MB-231 cells assessed as cell growth at 10^-4 M incubated for 48 hrs by sulforhodamine B assay relative to control; conditions: MDA-MB-231, 48 h, read-out: Activity
SF-539 [4] = assay: Growth inhibition of human SF539 cells assessed as cell growth at 10^-4 M incubated for 48 hrs by sulforhodamine B assay relative to control; conditions: SF-539, 48 h, read-out: Activity
T47D [5] = assay: Growth inhibition of human T47D cells assessed as cell growth at 10^-4 M incubated for 48 hrs by sulforhodamine B assay relative to control; conditions: read-out: Activity
NCI-H23 = assay: Growth inhibition of human NCI-H23 cells assessed as cell growth at 10^-8 M incubated for 48 hrs by sulforhodamine B assay relative to control; conditions: NCI-H23, 48 h, read-out: Activity
SF-539 [6] = assay: Growth inhibition of human SF539 cells assessed as cell growth at 10^-8 M incubated for 48 hrs by sulforhodamine B assay relative to control; conditions: SF-539, 48 h, read-out: Activity
KM12 = assay: Growth inhibition of human KM12 cells assessed as cell growth at 10^-5 M incubated for 48 hrs by sulforhodamine B assay relative to control; conditions: KM12, 48 h, read-out: Activity
SW-620 = assay: Growth inhibition of human SW620 cells incubated for 48 hrs by sulforhodamine B assay; conditions: SW-620, 48 h
NCI-H460 = assay: Growth inhibition of human NCI-H460 cells incubated for 48 hrs by sulforhodamine B assay; conditions: NCI-H460, 48 h
U-251 = assay: Growth inhibition of human U251 cells incubated for 48 hrs by sulforhodamine B assay; conditions: U-251, 48 h
MCF7 = assay: Growth inhibition of human MCF7 cells assessed as cell growth at 10^-4 M incubated for 48 hrs by sulforhodamine B assay relative to control; conditions: MCF7, 48 h, read-out: Activity
SK-OV-3 = assay: Growth inhibition of human SKOV3 cells assessed as cell growth at 10^-7 M incubated for 48 hrs by sulforhodamine B assay relative to control; conditions: SK-OV-3, 48 h, read-out: Activity
SF-539 [7] = assay: Growth inhibition of human SF539 cells assessed as cell growth at 10^-6 M incubated for 48 hrs by sulforhodamine B assay relative to control; conditions: SF-539, 48 h, read-out: Activity
K562 = assay: Growth inhibition of human K562 cells incubated for 48 hrs by sulforhodamine B assay; conditions: K562, 48 h
MOLT-4 = assay: Growth inhibition of human MOLT4 cells assessed as cell growth at 10^-8 M incubated for 48 hrs by sulforhodamine B assay relative to control; conditions: MOLT-4, 48 h, read-out: Activity
OVCAR-4 = assay: Growth inhibition of human OVCAR4 cells assessed as cell growth at 10^-8 M incubated for 48 hrs by sulforhodamine B assay relative to control; conditions: OVCAR-4, 48 h, read-out: Activity
SN12C = assay: Growth inhibition of human SN12C cells assessed as cell growth at 10^-8 M incubated for 48 hrs by sulforhodamine B assay relative to control; conditions: read-out: Activity
A498 = assay: Growth inhibition of human A498 cells assessed as cell growth at 10^-5 M incubated for 48 hrs by sulforhodamine B assay relative to control; conditions: A498, 48 h, read-out: Activity
OVCAR-8 = assay: Growth inhibition of human OVCAR8 cells incubated for 48 hrs by sulforhodamine B assay; conditions: OVCAR-8, 48 h
MDA-MB-435 = assay: Induction of apoptosis in human MDA-MB-435 cells assessed as late apoptotic cells by propidium iodide/Annexin V staining based flow cytometry (reference value: 0.22%)
MDA-MB-231 [8] = assay: Growth inhibition of human MDA-MB-231 cells assessed as cell growth at 10^-8 M incubated for 48 hrs by sulforhodamine B assay relative to control; conditions: MDA-MB-231, 48 h, read-out: Activity
EKVX [9] = assay: Growth inhibition of human EKVX cells assessed as cell growth at 10^-8 M incubated for 48 hrs by sulforhodamine B assay relative to control; conditions: read-out: Activity
HCT-116 = assay: Growth inhibition of human HCT116 cells assessed as cell growth at 10^-5 M incubated for 48 hrs by sulforhodamine B assay relative to control; conditions: HCT-116, 48 h, read-out: Activity
MDA-MB-468 = assay: Growth inhibition of human MDA-MB-468 cells assessed as cell growth at 10^-7 M incubated for 48 hrs by sulforhodamine B assay relative to control; conditions: MDA-MB-468, 48 h, read-out: Activity
IGROV-1 = assay: Growth inhibition of human IGROV1 cells incubated for 48 hrs by sulforhodamine B assay; conditions: IGROV-1, 48 h
LOX IMVI = assay: Growth inhibition of human LOXIMVI cells assessed as cell growth at 10^-8 M incubated for 48 hrs by sulforhodamine B assay relative to control; conditions: read-out: Activity
[10] = read-out: LC50 (the source's name)
[11] = read-out: pLC50 (the source's name) (converted)

CCS/C(Nc1ccccc1)=C(\C#N)C(=O)Nc1ccc(OC)cc1
growth at 10 µM (SNB-19): 22% | GI50 (OVCAR-5; read-out: GI50): 5.52 µM | CC50 (OVCAR-5; [10]): > 100 µM | TGI (OVCAR-5; read-out: TGI): > 100 µM | GI50 (OVCAR-5; read-out: pGI50 (converted)): 5.5 µM | CC50 (OVCAR-5; [11]): > 100 µM | TGI (OVCAR-5; read-out: pTGI): > 100 µM | growth at 1 µM (EKVX [1]): 84% | growth at 0.01 µM (T47D [2]): 99% | growth at 100 µM (MDA-MB-231 [3]): -18% | growth at 100 µM (SF-539 [4]): -54% | growth at 100 µM (T47D [5]): 3% | growth at 0.01 µM (NCI-H23): 97% | growth at 0.01 µM (SF-539 [6]): 94% | growth at 10 µM (KM12): 28% | GI50 (SW-620; read-out: GI50): 2.55 µM | CC50 (SW-620; [10]): > 100 µM | TGI (SW-620; read-out: TGI): > 100 µM | GI50 (SW-620; read-out: pGI50 (converted)): 2.57 µM | CC50 (SW-620; [11]): > 100 µM | TGI (SW-620; read-out: pTGI): > 100 µM | GI50 (NCI-H460; read-out: GI50): 3.14 µM | LC50 (NCI-H460; read-out: LC50): > 100 µM | TGI (NCI-H460; read-out: TGI): 34.2 µM | GI50 (NCI-H460; read-out: pGI50 (converted)): 3.16 µM | LC50 (NCI-H460; read-out: pLC50 (converted)): > 100 µM | TGI (NCI-H460; read-out: pTGI (converted)): 33.9 µM | GI50 (U-251; read-out: GI50): 4.42 µM | CC50 (U-251; [10]): > 100 µM | TGI (U-251; read-out: TGI): > 100 µM | GI50 (U-251; read-out: pGI50 (converted)): 4.47 µM | CC50 (U-251; [11]): > 100 µM | TGI (U-251; read-out: pTGI): > 100 µM | growth at 100 µM (MCF7): 6% | growth at 0.1 µM (SK-OV-3): 88% | growth at 1 µM (SF-539 [7]): 87% | GI50 (K562; read-out: GI50): 0.436 µM | CC50 (K562; [10]): > 100 µM | TGI (K562; read-out: TGI): > 100 µM | GI50 (K562; read-out: pGI50 (converted)): 0.437 µM | CC50 (K562; [11]): > 100 µM | TGI (K562; read-out: pTGI): > 100 µM | growth at 0.01 µM (MOLT-4): 97% | growth at 0.01 µM (OVCAR-4): 104% | growth at 0.01 µM (SN12C): 97% | growth at 10 µM (A498): 9% | GI50 (OVCAR-8; read-out: GI50): 4.37 µM | CC50 (OVCAR-8; [10]): > 100 µM | TGI (OVCAR-8; read-out: TGI): > 100 µM | GI50 (OVCAR-8; read-out: pGI50 (converted)): 4.37 µM | CC50 (OVCAR-8; [11]): > 100 µM | TGI (OVCAR-8; read-out: pTGI): > 100 µM | Activity (MDA-MB-435): 6.38% | growth at 0.01 µM (MDA-MB-231 [8]): 104% | growth at 0.01 µM (EKVX [9]): 89% | growth at 10 µM (HCT-116): 3% | growth at 0.1 µM (MDA-MB-468): 86% | GI50 (IGROV-1; read-out: GI50): 5.3 µM | CC50 (IGROV-1; [10]): > 100 µM | TGI (IGROV-1; read-out: TGI): > 100 µM | GI50 (IGROV-1; read-out: pGI50 (converted)): 5.25 µM | CC50 (IGROV-1; [11]): > 100 µM | TGI (IGROV-1; read-out: pTGI): > 100 µM | growth at 0.01 µM (LOX IMVI): 100%

CCS/C(Nc1ccccc1)=C(\C#N)C(=O)N/N=C\c1ccc(Cl)cc1Cl
growth at 10 µM (SNB-19): 28% | GI50 (OVCAR-5; read-out: GI50): 8.25 µM | CC50 (OVCAR-5; [10]): > 100 µM | TGI (OVCAR-5; read-out: TGI): > 100 µM | GI50 (OVCAR-5; read-out: pGI50 (converted)): 8.32 µM | CC50 (OVCAR-5; [11]): > 100 µM | TGI (OVCAR-5; read-out: pTGI): > 100 µM | growth at 1 µM (EKVX [1]): 87% | growth at 0.01 µM (T47D [2]): 102% | growth at 100 µM (MDA-MB-231 [3]): 9% | growth at 100 µM (SF-539 [4]): -6% | growth at 100 µM (T47D [5]): 17% | growth at 0.01 µM (NCI-H23): 105% | growth at 0.01 µM (SF-539 [6]): 105% | growth at 10 µM (KM12): 24% | GI50 (SW-620; read-out: GI50): 4.65 µM | CC50 (SW-620; [10]): > 100 µM | TGI (SW-620; read-out: TGI): > 100 µM | GI50 (SW-620; read-out: pGI50 (converted)): 4.68 µM | CC50 (SW-620; [11]): > 100 µM | TGI (SW-620; read-out: pTGI): > 100 µM | GI50 (NCI-H460; read-out: GI50): 3.16 µM | LC50 (NCI-H460; read-out: LC50): > 100 µM | TGI (NCI-H460; read-out: TGI): > 100 µM | GI50 (NCI-H460; read-out: pGI50 (converted)): 3.16 µM | LC50 (NCI-H460; read-out: pLC50 (converted)): > 100 µM | TGI (NCI-H460; read-out: pTGI (converted)): > 100 µM | GI50 (U-251; read-out: GI50): 3.95 µM | CC50 (U-251; [10]): > 100 µM | TGI (U-251; read-out: TGI): > 100 µM | GI50 (U-251; read-out: pGI50 (converted)): 3.98 µM | CC50 (U-251; [11]): > 100 µM | TGI (U-251; read-out: pTGI): > 100 µM | growth at 100 µM (MCF7): 9% | growth at 0.1 µM (SK-OV-3): 86% | growth at 1 µM (SF-539 [7]): 90% | GI50 (K562; read-out: GI50): 0.855 µM | CC50 (K562; [10]): > 100 µM | TGI (K562; read-out: TGI): > 100 µM | GI50 (K562; read-out: pGI50 (converted)): 0.851 µM | CC50 (K562; [11]): > 100 µM | TGI (K562; read-out: pTGI): > 100 µM | growth at 0.01 µM (MOLT-4): 95% | growth at 0.01 µM (OVCAR-4): 98% | growth at 0.01 µM (SN12C): 97% | growth at 10 µM (A498): 3% | GI50 (OVCAR-8; read-out: GI50): 4.81 µM | CC50 (OVCAR-8; [10]): > 100 µM | TGI (OVCAR-8; read-out: TGI): > 100 µM | GI50 (OVCAR-8; read-out: pGI50 (converted)): 4.79 µM | CC50 (OVCAR-8; [11]): > 100 µM | TGI (OVCAR-8; read-out: pTGI): > 100 µM | Activity (MDA-MB-435): 3.47% | growth at 0.01 µM (MDA-MB-231 [8]): 101% | growth at 0.01 µM (EKVX [9]): 98% | growth at 10 µM (HCT-116): 7% | growth at 0.1 µM (MDA-MB-468): 88% | GI50 (IGROV-1; read-out: GI50): 6.46 µM | CC50 (IGROV-1; [10]): > 100 µM | TGI (IGROV-1; read-out: TGI): > 100 µM | GI50 (IGROV-1; read-out: pGI50 (converted)): 6.46 µM | CC50 (IGROV-1; [11]): > 100 µM | TGI (IGROV-1; read-out: pTGI): > 100 µM | growth at 0.01 µM (LOX IMVI): 95%
